The values below come from patent US20060173069A1, “Therapeutic agent for hyperpotassemia and bone disease” (RIKEN, priority 2003, published 2006).

Positions of bridges follow the written chain, without caps; N, C: chain ends. No end group written: not given here.

The subject of assay [1] is bone resorption due to parathyroid hormone (PTH). Briefly: Serum calcium in TPTX rats with hypercalcemia by continuous PTH infusion. The class given is in vivo, SD rats. Particulars: for increase in the level of serum calcium due to PTH: 80 mg/kg, TPTX SD rats, administered 12 hours after start of PTH, followed 24 hours; for duration of inhibitory action on bone resorption: comparison of calcitonin with reveromycin A derivatives. On the procedure:
The bone resorption inhibitory effects of the reveromycin A derivatives were examined by measuring the level of serum calcium released in the blood by the action of bone resorption. SD rats were subjected to an operation of extracting the thyroid glands and the parathyroid glands (TPTX). Next day, a decrease in serum calcium was confirmed and then the continuous infusion of the parathyroid hormone (PTH) was carried out, thereby creating rats each having hypercalcemia by accelerating the bone resorption.
At 12 hours from the initiation of PTH injection, the reveromycin A derivatives ([…]) or a sodium salt thereof ([…]) were administered and the level of serum calcium was then measured in time-course for 24 hours.

Assay [2] concerns mature osteoclasts. Nature of the assay: Cell-death (apoptosis) inducing activity on mature osteoclasts, number of TRAP-stained multinuclear cells. The class given is cell-based, mouse. Particulars: for EC50: Mus musculus, Osteoclast, RAW264-derived mature osteoclasts, 24 hours incubation, TRAP staining, read-out: ED50 level of cell-death inducing activity to mature osteoclasts, Number of cells; for selective apoptosis inducing effect on the mature osteoclasts: in words. As to the method:
Using 29 different reveromycin A derivatives synthesized as described above, the cell-death inducing activities on the mature osteoclasts and undifferentiated macrophage-like cells derived from a mouse (RAW264 cells) were examined, respectively. The RAW264 cells, a mouse-macrophage cell line, were suspended in a 10% FBS-αMEM (manufactured by Gibco BRL Co., Ltd.) and then 12,000 cells/100 μl were inoculated in a 96-well plate. After 1-hour incubation, 100 μl of a culture medium containing RANKL ([…]) and PD98059 (40 μM) were added (final concentration: RANKL […] and PD98059 20 μM) and then incubated for 4 days to allow the differentiation of the cells to mature osteoclasts (J. Biol. Chem. Vol. 277, pp. 47366-47372 (2002)). Furthermore, on the second day of the culture, the half of the culture medium was replaced with new one. From each well of the plate where the cells were differentiated to the mature osteoclasts, 100 μl/well of the culture medium was removed. […] The apoptosis inducing activity was confirmed by the observation of agglutination of nuclei stained with 10 μM Hoechst 33258 for 10-minututes.

For assay [3], the system named is undifferentiated RAW264 cells. Nature of the assay: Cell-death inducing activity on undifferentiated RAW264 cells, MTT method. As to conditions: for CC50: Mus musculus, RAW264.7, 24 hours incubation, MTT, read-out: ED50 level of cell-death inducing activity to undifferentiated RAW264 cells, MTT; for growth inhibitory action on the osteoclast precursor cells RAW264: even at a comparatively high concentration. In kind it is cell-based, mouse. On the procedure:
The cell-death inducing activities to the undifferentiated RAW264 cells were investigated by the MTT method (J. Immunol. Methods, Vol. 65, pp 55-63 (1983). The RAW 264 cells were plated on a 96-well plate at a density of 40,000 cells/100 μl and then incubated for 24 hours. After the 24-hour incubation, 50 μl of a culture medium containing a three-fold concentration of the drug was added and then incubated for 24 hours to investigate the cell-death inducing activity. Two hours before the measurement of the cell-death inducing activity, 15 μl of 0.5% MTT-PBS (phosphate buffer saline) was added and incubated. After that, the residue from which the culture solution was removed was dissolved in 100 μl of DMSO (dimethyl sulfoxide) and the absorbance at 570 nm (a reference wave length of 630 nm) was measured, followed by calculating the ED50 level of the cell-death inducing activity.

The test system of assay [4] is anterior limb long bone, bone resorption induced by PTH, IL-1 or vitamin D3. Briefly: Inhibition of 45Ca liberation (bone resorption activity) from cultured fetal long bone. The class given is cell-based, rat. As to conditions: 72 hours culture; for inhibition of bone resorption induced by the PTH: 10^−8M, 10^−7M and 10^−6M, PTH 10^−8M; for inhibition of bone resorption due to vitamin D3 or IL-1: IL-1 0.3 ng/ml, vitamin D3 10^−8M. On the procedure:
The effects of the reveromycin A derivatives on the facilitation of the bone resorption due to the parathyroid hormone (PTH) were measured.
A19-day pregnant rat was subjected to the hypodermic injection of [^45Ca]CaCl2 to label a fetal bone. After 24 hours, the anterior limb long bone was extracted. For an anterior limb long bone, a Dulbecco-modified Eagle medium (DMEM) containing 15% heat-inactivated horse serum and 100 U/ml penicillin was used as a culture medium and then incubated for 72 hours together with a bone resorption factor (PTH 10^−8M, IL-1 0.3 ng/ml, vitamin D3 10^−8M) and the reveromycin A derivatives. After incubation, ^45Ca radioactivities in a solution into which calcium of the bone was eluted by 0.1 N HCl and in the culture solution were measured using a liquid scintillation counter. The ratio of the amount of calcium released into the culture solution to the total amount of calcium (bone resorption activity (%)) was used as an indicator and the effects of the reveromycin A derivatives on the facilitation of the bone resorption due to the PTH was investigated. • Bone resorption activity (%)=100×Amount of ^45Ca released into culture solution/(Amount of ^45Ca released into culture solution+Amount of ^45Ca left in bone)

As to `CCCC[C@@]1(OC(=O)CCC(=O)O)CC[C@]2(CC[C@H](C)[C@@H](C/C=C(C)/C=C/[C@H](OC(C)=O)[C@@H](C)/C=C/C(=O)O)O2)O[C@H]1/C=C/C(C)=C/C(=O)O` [Compound 27, C5-acetate], in assay [1], the “increase in the level of serum calcium due to PTH” value was “significant suppression” and the “duration of inhibitory action on bone resorption” value (from here on “duration of inhibitory action”) was “prolonged inhibitory action on bone resorption”. Moreover, in assay [2], the EC50 turned out to be 1.3 µM and the “selective apoptosis inducing effect on the mature osteoclasts” value was “showed a selective apoptosis inducing effect”. For the same compound, in assay [3], the CC50 came out at 49 µM and the “growth inhibitory action on the osteoclast precursor cells RAW264” value is listed as “do not show any growth inhibitory action”. In assay [4], the “inhibition of bone resorption induced by the PTH” value was “inhibited the bone resorption induced by the PTH at 10^−8M, 10^−7M, and 10^−6M, in a concentration-dependent manner”; the “inhibition of bone resorption due to vitamin D3 or IL-1” value is recorded as “could be also inhibited”.

On to `CCCC[C@@]1(OC(=O)CCC(=O)O)CC[C@]2(CC[C@H](C)[C@@H](C/C=C(C)/C=C/[C@H](O[Si](C)(C)C(C)(C)C)[C@@H](C)/C=C/C(=O)O)O2)O[C@H]1/C=C/C(C)=C/C(=O)O` [Compound 2, C5-silylether], for which, in assay [1], the “increase in the level of serum calcium due to PTH” value is “significant suppression” and the “duration of inhibitory action” value is “prolonged inhibitory action on bone resorption”. Also, in assay [2], the EC50 was found to be 6.6 µM and the “selective apoptosis inducing effect on the mature osteoclasts” value is “showed a selective apoptosis inducing effect”. In addition, in assay [3], the CC50 is 89 µM and the “growth inhibitory action on the osteoclast precursor cells RAW264” value is “do not show any growth inhibitory action”. Besides, in assay [4], the “inhibition of bone resorption induced by the PTH” value was “inhibited the bone resorption induced by the PTH at 10^−8M, 10^−7M, and 10^−6M, in a concentration-dependent manner”; the “inhibition of bone resorption due to vitamin D3 or IL-1” value is “could be also inhibited”.

“calcitonin (CGNLSTCMLGTYTQDFNKFHTFPQTAIGVGAP-NH2; disulfide 1-7; ends not checked; UniProt P01258 85-116, looked up) [reference compound]”: the “duration of inhibitory action” value in assay [1] is recorded as “shorter inhibitory action on bone resorption”.

Turning to `CCCC[C@@]1(OC(=O)CCC(=O)OC)CC[C@]2(CC[C@H](C)[C@@H](C/C=C(C)/C=C/[C@H](O[Si](C)(C)C(C)(C)C)[C@@H](C)/C=C/C(=O)OC)O2)O[C@H]1/C=C/C(C)=C/C(=O)O` [Compound 12], in assay [2], the EC50 came out at 0.6 µM. Besides, the CC50 in assay [3] came out at 1 µM.

Take `CCCC[C@@]1(OC(=O)CCC(=O)O)CC[C@]2(CC[C@H](C)[C@@H](C/C=C(C)/C=C/[C@H](O)[C@@H](C)/C=C/C(=O)OC)O2)O[C@H]1/C=C/C(C)=C/C(=O)OC` [Compound 13]: the EC50 in assay [2] was determined as 2.5 µM. Further, the CC50 in assay [3] worked out at 7.6 µM.

With `CCCC[C@]1(C(/C=C/C(C)=C/C(=O)O)OC(=O)CCC(=O)O)CC[C@]2(CC[C@H](C)[C@@H](C/C=C(C)/C=C/[C@H](O)[C@@H](C)/C=C/C(=O)O)O2)O1` (some centres unmarked) [Compound 1], the EC50 in assay [2] was above 45 µM. For the same compound, the CC50 in assay [3] was 132 µM.

As to `CCCC[C@]1([C@@H](O)/C=C/C(C)=C/C(=O)O)CC[C@]2(CC[C@H](C)[C@@H](C/C=C(C)/C=C/[C@H](O)[C@@H](C)/C=C/C(=O)O)O2)O1` [Compound 10], the EC50 in assay [2] is above 54 µM. In assay [3], the CC50 was above 178 µM.

Turning to `CCCC[C@@]1(OC(=O)CCC(=O)OC)CC[C@]2(CC[C@H](C)[C@@H](C/C=C(C)/C=C/[C@H](O)[C@@H](C)/C=C/C(=O)O)O2)O[C@H]1/C=C/C(C)=C/C(=O)OC` [Compound 14], in assay [2], the EC50 was 3.3 µM. Besides, in assay [3], the CC50 was 25 µM.

Turning to `CCCC[C@@]1(OC(=O)CCC(=O)OC)CC[C@]2(CC[C@H](C)[C@@H](C/C=C(C)/C=C/[C@H](O)[C@@H](C)/C=C/C(=O)O)O2)O[C@H]1/C=C/C(C)=C/C(=O)O` [Compound 21], in assay [2], the EC50 was 7.3 µM. Also, the CC50 in assay [3] came to 21 µM.

On to `CCCC[C@@]1(OC(=O)CCC(=O)OC)CC[C@]2(CC[C@H](C)[C@@H](C/C=C(C)/C=C/[C@H](O)[C@@H](C)/C=C/C(=O)OC)O2)O[C@H]1/C=C/C(C)=C/C(=O)OC` [Compound 16], for which the EC50 in assay [2] amounted to 26 µM. For the same compound, in assay [3], the CC50 is above 142 µM.

Regarding `CCCC[C@]1(C(/C=C/C(C)=C/C(=O)O)OC)CC[C@]2(CC[C@H](C)[C@@H](C/C=C(C)/C=C/[C@H](O)[C@@H](C)/C=C/C(=O)O)O2)O1` (some centres unmarked) [Compound 1392-II], the EC50 in assay [2] is above 52 µM. The CC50 in assay [3] is above 174 µM.

On to `CCCC[C@@]1(OC(=O)CCC(=O)OC)CC[C@]2(CC[C@H](C)[C@@H](C/C=C(C)/C=C/C(C)O)O2)O[C@H]1/C=C/C(C)=C/C(=O)OC` (some centres unmarked) [Compound 19], for which the EC50 in assay [2] is 36 µM. The CC50 in assay [3] was above 50 µM.
